In ChEMBL document CHEMBL1133788, “Structure--activity relationships of side-chain modified didemnins” (Bioorg Med Chem Lett, 2001):

Assays:
Type in all cases: functional
[1] = Growth inhibitory activity evaluated in NCI-60 tumor cell screen; settings: Homo sapiens
[2] = Lethal concentration for inhibitory activity evaluated in NCI-60 tumor cell screen; settings: human
[3] = Total Growth inhibitory activity evaluated in NCI-60 tumor cell screen; settings: Homo sapiens

Structure (SMILES) | GI50 [1] [µM] | LC50 [2] [µM] | TGI [3] [µM]
CC[C@H](C)[C@H]1NC(=O)[C@@H](NC(=O)[C@@H](CC(C)C)N(C)C(=O)[C@H]2C=CCN2)[C@@H](C)OC(=O)[C@H](Cc2ccc(OC)cc2)N(C)C(=O)[C@@H]2CCCN2C(=O)[C@H](CC(C)C)NC(=O)[C@@H](C)C(=O)[C@H](C(C)C)OC(=O)C[C@@H]1O | 0.003 | 7 | 0.039
CC[C@H](C)[C@H]1NC(=O)[C@@H](NC(=O)[C@@H](CC(C)C)N(C)C[C@@H]2CCCN2C(=O)[C@@H](C)O)[C@@H](C)OC(=O)[C@H](Cc2ccc(OC)cc2)N(C)C(=O)[C@@H]2CCCN2C(=O)[C@H](CC(C)C)NC(=O)[C@@H](C)C(=O)[C@H](C(C)C)OC(=O)C[C@@H]1O | 0.004 | 3 | 0.076
CC[C@H](C)[C@H]1NC(=O)[C@@H](NC(=O)[C@@H](CC(C)C)N(C)C(=O)[C@@H]2C=CCN2C(=O)[C@@H](C)O)[C@@H](C)OC(=O)[C@H](Cc2ccc(OC)cc2)N(C)C(=O)[C@@H]2CCCN2C(=O)[C@H](CC(C)C)NC(=O)[C@@H](C)C(=O)[C@H](C(C)C)OC(=O)C[C@@H]1O | 0.0028 | 0.083 | 0.02
CC[C@H](C)[C@H]1NC(=O)[C@@H](NC(=O)[C@@H](CC(C)C)N(C)C(=O)CNC(=O)Cc2cc(=O)oc3cc(N(C)C)ccc23)[C@@H](C)OC(=O)[C@H](Cc2ccc(OC)cc2)N(C)C(=O)[C@@H]2CCCN2C(=O)[C@H](CC(C)C)NC(=O)[C@@H](C)C(=O)[C@H](C(C)C)OC(=O)C[C@@H]1O | 0.011 | 7.2 | 0.0205
CC[C@H](C)[C@H]1NC(=O)[C@@H](NC(=O)[C@@H](CC(C)C)N(C)C(=O)C2CCCN2)[C@@H](C)OC(=O)[C@H](Cc2ccc(OC)cc2)N(C)C(=O)[C@@H]2CCCN2C(=O)[C@H](CC(C)C)NC(=O)[C@@H](C)C(=O)[C@H](C(C)C)OC(=O)C[C@@H]1O (stereo not given in full) | 0.00062 | 0.21 | 0.012
